Values quoted from earlier work as cited in paper PMC12642135 (Food and Waterborne Parasitology, 2025).
“Also recorded” adds a separate entry of the source.

Tested on: Toxoplasma gondii
Design: method as in Kul et al., 2013
Conditions: lambs, applied from the second week pi (day 14 pi) onwards; ref Kul et al., 2013

## Cc1cc(-n2c(=O)[nH]c(=O)n(C)c2=O)ccc1Oc1ccc(SC(F)(F)F)cc1 [toltrazuril]
  Reduction of tissue cysts: mildly reduced; also recorded: partial reduction
